Experimental data: ChEMBL document CHEMBL6103561, “Chemical dissection of selective myeloid leukemia-1 inhibitors: How they were found and evolved” (Eur J Med Chem, 2025)
pEC50, pIC50, pKi: −log10 of the molar value. ≈ marks a conversion by molar mass, not a printed value.

Tests used:
Bcl-2-like protein 1 [1] = target: T1, Bcl-2-like protein 1 (Homo sapiens, UniProt Q07817)
NCI-H929 [2] = experiment: Antiproliferative activity against human NCI-H929 cells assessed as reduction in cell viability
[3] = target: T2, Induced myeloid leukemia cell differentiation protein Mcl-1 (Homo sapiens, UniProt Q07820)
Description: Binding affinity to MCL-1 (unknown origin) assessed as inhibition constant by TR-FRET assay

[4] = target: T2, Induced myeloid leukemia cell differentiation protein Mcl-1; experiment: Binding affinity to N-terminal MCL-1 (unknown origin) using 5-FAM peptide as substrate by fluorescence polarization assay
HL-60 [5] = experiment: Cytotoxicity against human HL-60 cells assessed as reduction in cell viability incubated for 48 hrs by CCK-8 assay; conditions: HL-60, 48 h
[6] = target: T2, Induced myeloid leukemia cell differentiation protein Mcl-1; remark: listed apart in the source
Description: Binding affinity to MCL-1 (unknown origin) assessed as inhibition constant

Bcl-2-like protein 1 [7] = target: T1, Bcl-2-like protein 1; experiment: Binding affinity to Bcl-XL (unknown origin) assessed as inhibition constant by fluorescence polarization assay
[8] = target: T2, Induced myeloid leukemia cell differentiation protein Mcl-1; remark: listed apart in the source
[9] = target: T3, Apoptosis regulator Bcl-2 (Homo sapiens, UniProt P10415)
Description: Binding affinity to BCL-2 (unknown origin) as assessed as inhibition constant

Bcl-2-like protein 1 [10] = target: T1, Bcl-2-like protein 1; experiment: Binding affinity to BCL-XL (unknown origin) assessed as inhibition constant incubated for 60 mins by TR-FRET assay
[11] = Solubility of compound in water at pH 7 measured after 24 hrs by HPLC analysis
[12] = target: Voltage-gated inwardly rectifying potassium channel KCNH2 (Homo sapiens, UniProt Q12809)
OPM-2 = experiment: Antiproliferative activity against human OPM-2 cells
NCI-H929 [13] = experiment: Growth inhibition of human NCI-H929 cells
[14] = Clearance in mouse at 1 mg/kg, iv; conditions: in vivo
in vivo = conditions: mouse
[15] = target: T2, Induced myeloid leukemia cell differentiation protein Mcl-1; remark: listed apart in the source
[16] = target: T3, Apoptosis regulator Bcl-2; remark: listed apart in the source
Description: Inhibition of Bcl-2 (unknown origin) by fluorescence polarization assay

MV4-11 [17] = experiment: Antiproliferative activity against human MV4-11 cells assessed as reduction in cell viability
MOLP-8 = experiment: Antiproliferative activity against human MOLP8 cells
Bcl-2-like protein 1 [18] = target: T1, Bcl-2-like protein 1; experiment: Binding affinity to BCL-XL (unknown origin) assessed as inhibition constant
[19] = target: T2, Induced myeloid leukemia cell differentiation protein Mcl-1; remark: listed apart in the source
Description: Inhibition of N-terminal GST-tagged human MCL-1 (1 to 23 residues) extracted from Escherichia coli BL21 (DE3) by TR-FRET assay

MV4-11 [20] = experiment: Antiproliferative activity against human MV4-11 cells
[21] = target: T3, Apoptosis regulator Bcl-2; experiment: Binding affinity to BCL-2 (unknown origin) assessed as inhibition constant incubated for 60 mins by TR-FRET assay
Bcl-2-like protein 1 [22] = target: T1, Bcl-2-like protein 1; remark: listed apart in the source
Description: Inhibition of Bcl-XL (unknown origin) by FRET assay

[23] = target: T2, Induced myeloid leukemia cell differentiation protein Mcl-1; remark: listed apart in the source
Description: Inhibition of MCL-1 (unknown origin)

[24] = Antiproliferative activity against human BL-2 cells; conditions: BL2
[25] = target: T2, Induced myeloid leukemia cell differentiation protein Mcl-1; remark: listed apart in the source
Description: Binding affinity to MCL-1 (unknown origin) assessed as inhibition constant by fluorescence polarization assay

HL-60 [26] = experiment: Growth inhibition of human HL-60 cells

T3 sequence (P10415 whole entry): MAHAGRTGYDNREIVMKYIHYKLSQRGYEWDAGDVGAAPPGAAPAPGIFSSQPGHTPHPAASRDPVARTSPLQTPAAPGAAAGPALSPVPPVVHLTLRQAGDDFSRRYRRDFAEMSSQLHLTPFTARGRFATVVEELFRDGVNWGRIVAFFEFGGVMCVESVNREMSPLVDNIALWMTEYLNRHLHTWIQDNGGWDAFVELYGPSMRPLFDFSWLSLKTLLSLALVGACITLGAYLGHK
T1 sequence (Q07817 whole entry): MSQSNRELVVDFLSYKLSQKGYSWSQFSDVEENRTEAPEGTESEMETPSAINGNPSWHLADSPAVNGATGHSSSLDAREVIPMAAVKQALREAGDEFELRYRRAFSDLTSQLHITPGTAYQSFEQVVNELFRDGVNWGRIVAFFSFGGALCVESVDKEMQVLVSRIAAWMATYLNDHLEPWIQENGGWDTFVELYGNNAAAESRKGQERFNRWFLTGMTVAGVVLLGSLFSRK
Sequence of Voltage-gated inwardly rectifying potassium channel KCNH2 (Q12809 whole entry): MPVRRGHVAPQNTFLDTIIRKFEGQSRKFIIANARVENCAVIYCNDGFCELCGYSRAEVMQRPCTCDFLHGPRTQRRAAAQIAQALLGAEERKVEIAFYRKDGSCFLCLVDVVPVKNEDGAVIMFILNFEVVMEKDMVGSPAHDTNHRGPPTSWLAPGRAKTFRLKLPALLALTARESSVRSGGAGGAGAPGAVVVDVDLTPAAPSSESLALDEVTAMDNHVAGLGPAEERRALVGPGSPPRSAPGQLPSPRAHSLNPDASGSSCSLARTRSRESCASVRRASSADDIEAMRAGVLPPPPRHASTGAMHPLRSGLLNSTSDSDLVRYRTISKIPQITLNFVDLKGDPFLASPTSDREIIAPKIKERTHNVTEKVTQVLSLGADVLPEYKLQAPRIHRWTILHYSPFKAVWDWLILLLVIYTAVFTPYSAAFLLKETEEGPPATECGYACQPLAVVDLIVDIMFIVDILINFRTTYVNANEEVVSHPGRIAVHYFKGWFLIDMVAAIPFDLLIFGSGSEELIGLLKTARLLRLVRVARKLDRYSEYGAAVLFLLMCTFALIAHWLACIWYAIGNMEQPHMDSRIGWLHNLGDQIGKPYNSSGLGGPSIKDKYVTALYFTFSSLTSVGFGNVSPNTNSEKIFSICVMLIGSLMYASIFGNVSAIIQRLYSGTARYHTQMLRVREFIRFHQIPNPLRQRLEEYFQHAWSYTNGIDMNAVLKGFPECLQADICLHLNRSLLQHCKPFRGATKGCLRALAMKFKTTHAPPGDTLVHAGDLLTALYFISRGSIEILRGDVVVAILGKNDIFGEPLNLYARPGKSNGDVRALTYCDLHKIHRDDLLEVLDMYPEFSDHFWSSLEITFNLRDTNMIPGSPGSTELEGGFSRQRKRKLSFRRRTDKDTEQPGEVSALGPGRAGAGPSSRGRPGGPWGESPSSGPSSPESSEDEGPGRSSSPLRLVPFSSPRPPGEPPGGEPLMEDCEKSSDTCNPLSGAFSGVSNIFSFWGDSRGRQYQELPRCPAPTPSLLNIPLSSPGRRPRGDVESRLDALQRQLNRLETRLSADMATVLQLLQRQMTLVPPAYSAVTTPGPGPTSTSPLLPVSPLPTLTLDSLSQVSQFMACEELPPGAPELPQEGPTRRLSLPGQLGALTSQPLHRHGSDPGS
T2 sequence (Q07820 whole entry): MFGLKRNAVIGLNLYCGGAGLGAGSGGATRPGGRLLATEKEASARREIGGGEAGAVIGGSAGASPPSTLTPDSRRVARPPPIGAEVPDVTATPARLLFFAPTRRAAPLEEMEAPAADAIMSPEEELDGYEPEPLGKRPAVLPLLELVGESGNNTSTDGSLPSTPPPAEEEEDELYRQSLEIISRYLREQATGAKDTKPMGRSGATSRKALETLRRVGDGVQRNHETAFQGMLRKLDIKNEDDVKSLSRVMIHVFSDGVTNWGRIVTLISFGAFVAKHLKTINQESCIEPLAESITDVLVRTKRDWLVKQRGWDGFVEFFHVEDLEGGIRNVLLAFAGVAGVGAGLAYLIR

For `O=C(O)CSc1ccc(C(=O)c2[nH]c(Cl)c(Cl)c2-n2c(C(=O)c3ccc(SCC(=O)O)cc3O)cc(Cl)c2Cl)c(O)c1`, the pIC50 (Bcl-2-like protein 1 [1]) was < 4.00.
With `COc1ccccc1-c1nccc(COc2ccccc2C[C@@H](Oc2ncnc3sc(-c4ccc(F)cc4)c(-c4ccc(OCCN5CCN(C)CC5)c(Cl)c4C)c23)C(=O)O)n1` the pIC50 (NCI-H929 [2]) was 9.00.
In the case of `Cc1nn(C)c(C)c1-c1cccc2c(CCCOc3cccc4ccccc34)c(C(=O)O)n(CCN3CCOCC3)c12`, the pKi [3] was 9.00.
For `O=C(O)Cn1cc(-c2cc(O)c(C(=O)c3[nH]c(Cl)c(Cl)c3-n3c(C(=O)c4cc(Cl)c(-c5cn(CC(=O)O)nn5)cc4O)cc(Cl)c3Cl)cc2Cl)nn1`, the pIC50 (Bcl-2-like protein 1 [1]) was < 4.30.
With `Cc1ccc(Oc2ccc(O)c(O)c2)c(-c2ccsc2S(=O)(=O)NCCNC(=O)Nc2cc(C(F)(F)F)cc(C(F)(F)F)c2)c1` the pKi [4] was 6.31 and the pIC50 (HL-60 [5]) was 5.43.
With `CC[C@@H]1CC/C=C/[C@H](O)[C@@H]2CC[C@H]2CN2C[C@@]3(CCc4cc(Cl)ccc43)COc3ccc(cc32)C(=O)NS1(=O)=O` the pIC50 [6] was 10.30.
Compound `CC(C)c1ccccc1Cc1cc(C(=O)Nc2ccc(S(=O)(=O)c3ccccc3C(C)(C)C)cc2)c(O)c(O)c1O` has a pKi (Bcl-2-like protein 1 [7]) of 6.54.
In the case of `Cc1c(-c2cccc3c(CCCOc4cccc5ccccc45)c(C(=O)O)n(C)c23)c(COc2ccccc2)nn1C`, the pIC50 [8] was 5.38.
With `Cc1c(-c2cccc3c(CCCOc4cccc5ccccc45)c(C(=O)O)n(C)c23)c(COc2ccc(B(O)O)c(C=O)c2)nn1C` the pIC50 [8] was 5.38.
With `O=C(O)CCn1cc(-c2cccc(C(F)(F)F)c2)c2ccc(-c3ccccc3)cc21` the pKi [9] was 5.62 and the pKi [6] was 6.39.
In the case of `COCCOCn1nc(C)c2c1CSCc1cc(n(C)n1)CCc1cc(c3ccc(F)cc3c1)OCCCn1c(C(=O)O)c(C)c3c-2c(Cl)ccc31`, the pKi (Bcl-2-like protein 1 [10]) was 10.82, the solubility at 24 h [11] was 3140 µM (≈ 2340 µg/mL) and the pIC50 [12] was < 4.52.
For `Cc1ccc(S(=O)(=O)/N=C2/C=C(Sc3nc[nH]n3)C(=O)c3ccccc32)cc1`, the pIC50 [8] was 7.85.
With `CO[C@@H]1/C(F)=C/C[C@H](C)[C@@H](C)S(=O)(=O)NC(=O)c2ccc3c(c2)N(C[C@@H]2CCO[C@H]21)C[C@@]1(CCCc2cc(Cl)ccc21)CO3` the solubility at 24 h [11] was 11.2 µM (≈ 7.25 µg/mL) and the pIC50 (OPM-2) was 5.95.
In the case of `Cc1cc(Cl)cc(C)c1OCCCc1c2n(c3c(-c4c(C)nn(C)c4C)c(Cl)ccc13)CCCN(c1cn(C)c3ccc(C(=O)O)cc13)C2=O`, the GI50 (NCI-H929 [13]) was 300 nM, the clearance [14] was 245 mL/min/kg and the pKi [3] was > 10.00. The half-life (in vivo) was 34.2 min.
Work on `C#Cc1ccc(OCc2nn(C)c(C)c2-c2cccc3c(CCCOc4cccc5ccccc45)c(C(=O)O)n(C)c23)cc1C=O` yielded a pIC50 [8] of 5.38.
For `COCCOCc1nn(C)c2c1CSCc1cc(n(C)n1)CSc1cc(c3ccc(F)cc3c1)OCCCc1c(C(=O)O)n(CCN3CCOCC3)c3c-2c(Cl)ccc13`, the pKi (Bcl-2-like protein 1 [10]) was 10.70, the solubility at 24 h [11] was 550 µM (≈ 475 µg/mL) and the pIC50 [12] was < 4.52.
In the case of `COCCOCc1nn(C)c2c1CSCc1cc(n(C)n1)CSc1cc(c3ccc(F)cc3c1)OCCCc1c(C(=O)O)n(C)c3c-2c(Cl)ccc13`, the pKi (Bcl-2-like protein 1 [10]) was 10.74, the solubility at 24 h [11] was 580 µM (≈ 443 µg/mL) and the pIC50 [12] was < 4.52.
`CC(C)CN1C[C@@H](c2ccc(Cl)cc2Cl)Oc2ccc(C(=O)O)cc21` showed a pIC50 [15] of 4.26.
`Cc1c(-c2cccc3c(CCCOc4cccc5ccccc45)c(C(=O)O)n(C)c23)c(COc2ccc(S(=O)(=O)F)cc2)nn1C` showed a pIC50 [8] of 5.38.
Compound `Cc1cc2c(C(C)C)c(O)c(O)cc2c(O)c1-c1c(C)cc2c(C(C)C)c(O)c(O)cc2c1O` [APOGOSSYPOL] has a pIC50 [16] of 5.55.
For `CO[C@H]1/C=C/C[C@H](C)[C@@H](C)S(=O)(=O)NC(=O)c2ccc3c(c2)N(C[C@@H]2CCO[C@H]21)C[C@@]1(CCCc2cc(Cl)ccc21)CO3`, the solubility at 24 h [11] was < 0.1 µM and the pIC50 (OPM-2) was 6.36.
`Cc1cc(OCCCn2ccc3cc(C(=O)O)ccc32)cc(C)c1Cl` gave a pKi [9] of 4.89 and a pKi [6] of 5.05.
With `COC1=CC(c2cc3ccccc3[nH]2)=N/C1=C\c1[nH]c(C)cc1C` [OBATOCLAX] the pKi (Bcl-2-like protein 1 [7]) was < 6.00, the pKi [9] was 6.70 and the pKi [6] was < 6.00.
`CO[C@H]1/C=C/C[C@H](C)[C@@H](C)S(=O)(=O)NC(=O)c2ccc3c(c2)N(C[C@@H]2CC[C@H]21)C[C@@]1(CCCc2cc(Cl)ccc21)CO3` [TAPOTOCLAX] showed a pIC50 (MV4-11 [17]) of 6.82.
In the case of `CO[C@@]1(CN2CCN3CCCC[C@@H]3C2)/C=C/C[C@H](C)[C@@H](C)S(=O)(=O)NC(=O)c2ccc3c(c2)N(C[C@@H]2CC[C@H]21)C[C@@]1(CCCc2cc(Cl)ccc21)CO3`, the pIC50 (MV4-11 [17]) was 6.82 and the pIC50 (OPM-2) was 7.30.
In the case of `Cc1c2c(nn1C)CSCc1cc(n(C)n1)CSc1cc(c3ccccc3c1)OCCCc1c(C(=O)O)n(C)c3c-2c(Cl)ccc13` [AZD-5991], the pEC50 (MOLP-8) was < 4.80.
With `COc1ccccc1-c1nccc(COc2ccc3cc2C[C@H](C(=O)O)Oc2ncnc4sc(-c5ccc(F)cc5)c(c24)-c2ccc(c(Cl)c2C)CN(CCN2CCN(C)CC2)CO3)n1` the pKi (Bcl-2-like protein 1 [18]) was < 6.18, the pKi [9] was < 5.92 and the pKi [6] was 8.26.
For `O=C(c1ccccc1O)c1[nH]c(Cl)c(Cl)c1-n1c(C(=O)c2ccccc2O)cc(Cl)c1Cl`, the pIC50 (Bcl-2-like protein 1 [1]) was < 4.00 and the pIC50 [19] was 5.00.
With `Cc1nn(C)c(COc2ccc(N3CCN(S(=O)(=O)N(C)C)CC3)cc2)c1-c1cccc2c(CCCOc3cccc4ccccc34)c(C(=O)O)n(CCN3CCOCC3)c12` the pEC50 (MV4-11 [20]) was 5.73, the pKi [21] was 6.88 and the pKi (Bcl-2-like protein 1 [10]) was < 6.18.
In the case of `Cc1cc(OCCCn2cc(-c3cccc(C(F)(F)F)c3)c3cc(C(=O)O)ccc32)cc(C)c1Cl`, the pKi [9] was 6.25 and the pKi [6] was 6.40.
`Cc1c(Cl)c2c(Cl)c(C)c1-c1c(-c3ccc(F)cc3)sc3ncnc(c13)O[C@@H](C(=O)O)Cc1cc(ccc1OCc1ccnc(-c3ccc(OC[C@H]4COCCO4)cc3)n1)OCC(CN1CCN(C)CC1)O2` (some centres not stated) gave a pIC50 (NCI-H929 [2]) of 7.40 and a pKi [3] of 11.00.
With `Cc1c(-c2c(-c3ccc(F)o3)sc3ncnc(O[C@H](Cc4ccccc4OCc4ccnn4CC(F)(F)F)C(=O)O)c23)ccc(OCCN2CCN(C)CC2)c1Cl` the pIC50 (NCI-H929 [2]) was 9.00.
Compound `Cc1cc(Cl)cc(C)c1OCCCc1c2n(c3c(-c4c(C)nn(C)c4C)c(Cl)ccc13)[C@H](C)CCN(c1cn(C)c3ccc(C(=O)O)cc13)C2=O` has a GI50 (NCI-H929 [13]) of 190 nM and a pKi [3] of 10.01.
For `CO[C@H]1/C(F)=C/C[C@H](C)[C@@H](C)S(=O)(=O)NC(=O)c2ccc3c(c2)N(C[C@@H]2CCO[C@H]21)C[C@@]1(CCCc2cc(Cl)ccc21)CO3`, the solubility at 24 h [11] was 8.3 µM (≈ 5.37 µg/mL) and the pIC50 (OPM-2) was 6.72.
Work on `CC(=O)N1CCN(c2ccc(OCc3nn(C)c(C)c3-c3cccc4c(CCCOc5cccc6ccccc56)c(C(=O)O)n(Cc5cccnc5)c34)cc2)CC1` yielded a pKi [3] of 9.00.
For `O=S(=O)(Nc1cc(Sc2ccco2)c(O)c2ccccc12)c1cccs1`, the pKi [6] was < 4.00.
`Cc1cc(S(=O)(=O)NC(=O)c2cc(C)c(-c3cccc4c(CCCOc5cccc6ccccc56)c(C(=O)O)nn34)c(C)c2)ccc1N[C@H](CCN(C)C)CSc1ccccc1` showed a pIC50 (Bcl-2-like protein 1 [22]) of 8.52 and a pIC50 [23] of 8.10.
With `CC1(C)CC[C@@H](OC(=O)/C=C/c2ccccc2)[C@]2(C)C(C=O)C(C=O)=C[C@H](O)[C@@]12C` (some centres not stated) the pIC50 [24] was 5.40, the pKi [25] was 6.52 and the pIC50 [12] was < 5.00.
In the case of `CC(=O)N1CCN(c2ccc(OCc3cccc(-c4ccc5c(-c6cccc(C(F)(F)F)c6)cn(CCC(=O)O)c5c4)c3)cc2)CC1`, the GI50 (HL-60 [26]) was 3150 nM and the pKi [6] was 6.43.
In the case of `CCOP(=O)(OCC)c1ccc(C(=O)c2[nH]c(Cl)c(Cl)c2-n2c(C(=O)c3ccc(P(=O)(OCC)OCC)cc3O)cc(Cl)c2Cl)c(O)c1`, the pIC50 (Bcl-2-like protein 1 [1]) was < 4.00.
Compound `COc1n[nH]cc1C(=O)NS1(=O)=NC(=O)c2ccc3c(c2)N(C[C@@H]2CCO[C@H]2[C@H](OC)/C(F)=C/C[C@H](C)C1)C[C@@]1(CCCc2cc(Cl)ccc21)CO3` (some centres not stated) has a solubility at 24 h [11] of 520 µM (≈ 393 µg/mL) and a pIC50 (OPM-2) of 7.36.
